The values below come from PubChem BioAssay AID192 (DTP/NCI, 2004).

The subject of this experiment is BDF1 mice, B16 melanoma ip, median survival T/C. Briefly: NCI In Vivo Anticancer Drug Screen. Data for tumor model B16 Melanoma (intraperitoneal) in B6D2F1 (BDF1) mice. Particulars: endpoint: median survival time, higher = longer survival. Summed up:
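Tumor-bearing mice received test compound or vehicle. Survival or tumor size was then measured in both groups. The treated-group figure was divided by the control-group figure.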

Where [1] appears, read: dose: 100.0 mg/kg/injection, schedule: Q01DX009 (ip), vehicle: saline with Tween-80.
Where [2] appears, read: dose: 100.0 mg/kg/injection, schedule: Q04DX003 (ip), vehicle: saline with Tween-80.
[3] abbreviates: dose: 200.0 mg/kg/injection, schedule: Q01DX009 (ip), vehicle: saline with Tween-80.
[4] abbreviates: dose: 200.0 mg/kg/injection, schedule: Q04DX003 (ip), vehicle: saline with Tween-80.
Where [5] appears, read: dose: 400.0 mg/kg/injection, schedule: Q01DX009 (ip), vehicle: saline with Tween-80.
[6] abbreviates: dose: 400.0 mg/kg/injection, schedule: Q04DX003 (ip), vehicle: saline with Tween-80.
[7] abbreviates: dose: 0.75 mg/kg/injection, schedule: Q01DX009 (ip), vehicle: saline.
Setting [8] is: dose: 1.0 mg/kg/injection, schedule: Q01DX009 (ip), vehicle: saline with Tween-80.
Setting [9] is: dose: 2.0 mg/kg/injection, schedule: Q01DX009 (ip), vehicle: saline with Tween-80.
The mark [10] stands for this setting: dose: 4.0 mg/kg/injection, schedule: Q01DX009 (ip), vehicle: saline with Tween-80.
[11] abbreviates: dose: 50.0 mg/kg/injection, schedule: Q01DX009 (ip), vehicle: Klucel (hydroxypropylcellulose) (HPC).
Setting [12] is: dose: 100.0 mg/kg/injection, schedule: Q01DX009 (ip), vehicle: Klucel (hydroxypropylcellulose) (HPC).
Where [13] appears, read: dose: 12.5 mg/kg/injection, schedule: Q01DX009 (ip), vehicle: saline with Tween-80.
[14] abbreviates: dose: 25.0 mg/kg/injection, schedule: Q01DX009 (ip), vehicle: saline with Tween-80.
The mark [15] stands for this setting: dose: 100.0 mg/kg/injection, schedule: Q01DX009 (ip), vehicle: saline.
The mark [16] stands for this setting: dose: 200.0 mg/kg/injection, schedule: Q01DX009 (ip), vehicle: saline.

Values joined by “and” are separate entries in the source; they are usually repeats but may differ in a detail not shown here. Equal values may be shown once. Toxic doses and inconclusive results are not listed.

`O=C(/C=C\c1ccccc1)/C=C/c1ccccc1`: the T/C was 104 % of control under setting [1]; 102 % of control under setting [2]; 96 % of control under setting [3]; 100 % of control under setting [4]; 92 % of control under setting [5]; 102 % of control under setting [6].

In the case of `CC(C)C(=O)[O][Sn]([CH3])([CH3])[CH3]`, the T/C was 107 % of control (dose: 0.19 mg/kg/injection, schedule: Q01DX009 (ip), vehicle: saline); 105 % of control (dose: 0.38 mg/kg/injection, schedule: Q01DX009 (ip), vehicle: saline); 100 % of control under setting [7].

For `COc1cccc2c1C(=O)c1c(O)c3c(c(O)c1C2=O)C[C@@](O)(/C(C)=N/NC(=O)c1ccccc1)C[C@@H]3OC1CC(N)C(O)C(C)O1` (stereo partly specified), the T/C (dose: 0.5 mg/kg/injection, schedule: Q01DX009 (ip), vehicle: water) was 118 % of control; the T/C under setting [7] was 156 % of control; the T/C (dose: 1.5 mg/kg/injection, schedule: Q01DX009 (ip), vehicle: saline) was 156 % of control and 167 % of control and 202 % of control; the T/C (dose: 2.0 mg/kg/injection, schedule: Q01DX001 (ip), vehicle: water) is 158 % of control and 165 % of control; the T/C (dose: 2.0 mg/kg/injection, schedule: Q01DX009 (ip), vehicle: water) is 181 % of control; the T/C (dose: 3.0 mg/kg/injection, schedule: Q01DX009 (ip), vehicle: saline) is 186 % of control and 200 % of control and 226 % of control. In addition, the T/C by setting is: (dose: 3.0 mg/kg/injection, schedule: Q04DX003 (ip), vehicle: saline) 165 % of control and 172 % of control; (dose: 4.0 mg/kg/injection, schedule: Q01DX001 (ip), vehicle: water) 161 % of control and 162 % of control and 202 % of control; (dose: 4.0 mg/kg/injection, schedule: Q01DX009 (ip), vehicle: water) 172 % of control; (dose: 6.0 mg/kg/injection, schedule: Q01DX009 (ip), vehicle: saline) 191 % of control and 202 % of control and 272 % of control; (dose: 6.0 mg/kg/injection, schedule: Q04DX003 (ip), vehicle: saline) 161 % of control and 193 % of control and 260 % of control; (dose: 8.0 mg/kg/injection, schedule: Q01DX001 (ip), vehicle: water) 186 % of control and 211 % of control and 275 % of control. The T/C by setting is: (dose: 8.0 mg/kg/injection, schedule: Q01DX009 (ip), vehicle: water) 245 % of control; (dose: 12.0 mg/kg/injection, schedule: Q04DX003 (ip), vehicle: saline) 155 % of control and 215 % of control and 260 % of control; (dose: 16.0 mg/kg/injection, schedule: Q01DX001 (ip), vehicle: water) 178 % of control and 282 % of control and 287 % of control.

With `O=C(NCCCCCCNC(=O)N1CC1)N1CC1`, the T/C is, setting by setting: (dose: 0.3 mg/kg/injection, schedule: Q01DX009 (ip), vehicle: saline) 101 % of control; (dose: 0.6 mg/kg/injection, schedule: Q01DX009 (ip), vehicle: saline) 96 % of control; (dose: 1.2 mg/kg/injection, schedule: Q01DX009 (ip), vehicle: saline) 103 % of control; (dose: 2.4 mg/kg/injection, schedule: Q01DX009 (ip), vehicle: saline) 92 % of control; (dose: 4.8 mg/kg/injection, schedule: Q01DX009 (ip), vehicle: saline) 103 % of control.

For `CC(=O)[S][Pb]([c]1ccccc1)([c]1ccccc1)[c]1ccccc1`, the T/C was 97 % of control (dose: 0.5 mg/kg/injection, schedule: Q01DX009 (ip), vehicle: saline with Tween-80); 93 % of control under setting [8]; 92 % of control under setting [9]; 101 % of control under setting [10].

Take `O=c1[nH]c(/C=C/c2ccc(Cl)cc2)nc(O)c1-c1ccc(Cl)cc1`: the T/C (dose: 75.0 mg/kg/injection, schedule: Q04DX003 (ip), vehicle: Klucel (hydroxypropylcellulose) (HPC)) was 110 % of control; the T/C (dose: 150.0 mg/kg/injection, schedule: Q04DX003 (ip), vehicle: Klucel (hydroxypropylcellulose) (HPC)) was 100 % of control; the T/C (dose: 300.0 mg/kg/injection, schedule: Q04DX003 (ip), vehicle: Klucel (hydroxypropylcellulose) (HPC)) was 87 % of control.

Take `O=C(NC(CS)C(=O)O)OCc1ccccc1` (stereo unspecified): the T/C was 94 % of control under setting [11] and 94 % of control under setting [12].

Take `c1ccc2c(CC3=NCCN3)cccc2c1`: the T/C was 102 % of control (dose: 6.25 mg/kg/injection, schedule: Q01DX009 (ip), vehicle: saline with Tween-80); 100 % of control under setting [13]; 102 % of control under setting [14].

For `O=C(O)c1ccccc1C(=O)Nc1cc(Cl)ccc1Cl`, the T/C is, setting by setting: under setting [11], 100 % of control; under setting [12], 94 % of control.

For the compound `CCCCCCCCCCCCCCCC(=O)OCC1OC(n2ccc(N)nc2=O)C(O)C1O` (stereo unspecified), the T/C is, setting by setting: under setting [8], 103 % of control; under setting [9], 114 % of control; (dose: 2.5 mg/kg/injection, schedule: Q01DX001 (ip), vehicle: saline with Tween-80) 99 % of control; under setting [10], 116 % of control; (dose: 5.0 mg/kg/injection, schedule: Q01DX001 (ip), vehicle: saline with Tween-80) 100 % of control; (dose: 10.0 mg/kg/injection, schedule: Q01DX001 (ip), vehicle: saline with Tween-80) 110 % of control. The T/C runs as follows: (dose: 20.0 mg/kg/injection, schedule: Q01DX001 (ip), vehicle: saline with Tween-80) 104 % of control; (dose: 25.0 mg/kg/injection, schedule: Q04DX003 (ip), vehicle: saline with Tween-80) 122 % of control; (dose: 30.0 mg/kg/injection, schedule: Q01DX009 (ip), vehicle: saline with Tween-80) 170 % of control; (dose: 37.5 mg/kg/injection, schedule: Q01DX001 (ip), vehicle: saline) 152 % of control; (dose: 75.0 mg/kg/injection, schedule: Q01DX001 (ip), vehicle: saline) 186 % of control.

`O=C1OCC(O)C(O)C(O)C(O)C1O` (stereo unspecified): the T/C under setting [15] was 113 % of control; the T/C under setting [16] was 106 % of control; the T/C (dose: 400.0 mg/kg/injection, schedule: Q01DX009 (ip), vehicle: saline) is 120 % of control.

`CN1C(=O)C(=Cc2ccc(O)cc2)C(=O)N(C)C1=O`: the T/C is, setting by setting: under setting [13], 101 % of control; under setting [14], 97 % of control.

In the case of `C1CNCCN1`, the T/C runs as follows: (dose: 25.0 mg/kg/injection, schedule: Q01DX009 (ip), vehicle: suspension in saline) 93 % of control; (dose: 50.0 mg/kg/injection, schedule: Q01DX009 (ip), vehicle: suspension in saline) 102 % of control; (dose: 100.0 mg/kg/injection, schedule: Q01DX009 (ip), vehicle: suspension in saline) 106 % of control; (dose: 200.0 mg/kg/injection, schedule: Q01DX009 (ip), vehicle: suspension in saline) 90 % of control.

`O=NN(CCCl)C(=O)NC1c2cc(Cl)ccc2-c2c(Cl)cc(Cl)cc21` (stereo unspecified): the T/C was 169 % of control under setting [13]; 195 % of control under setting [14]; 181 % of control and 186 % of control (dose: 50.0 mg/kg/injection, schedule: Q01DX009 (ip), vehicle: saline with Tween-80); 104 % of control and 231 % of control under setting [1]; 175 % of control under setting [3].

Regarding `COc1cc(/C=C/C(N)=O)cc(OC)c1OC`, the T/C is, setting by setting: (dose: 25.0 mg/kg/injection, schedule: Q01DX009 (ip), vehicle: saline) 107 % of control; under setting [15], 94 % of control; under setting [16], 102 % of control.

For `O=CNNC=O`, the T/C runs as follows: under setting [1], 86 % of control; under setting [3], 95 % of control; under setting [5], 90 % of control.

For the compound `COc1c(O)cc2c(c1OC)-c1ccc(OC)c(=O)cc1[C@@H](NC(C)=O)CC2`, under “dose: 0.62 mg/kg/injection, schedule: Q01DX009 (ip), vehicle: saline with Tween-80”, the T/C is 123 % of control.

Take `CC#CCOCC(CCl)OC(=O)Nc1ccccc1` (stereo unspecified): the T/C runs as follows: under setting [2], 93 % of control; under setting [4], 97 % of control; under setting [6], 90 % of control.

On to `CCN(CC)CCOc1ccc(NC2=C(Cl)C(=O)C(Nc3ccc(OCCN(CC)CC)cc3)=C(Cl)C2=O)cc1`, for which the T/C is, setting by setting: (dose: 6.25 mg/kg/injection, schedule: Q01DX009 (ip), vehicle: saline + alcohol) 95 % of control; (dose: 12.5 mg/kg/injection, schedule: Q01DX009 (ip), vehicle: saline + alcohol) 98 % of control; (dose: 25.0 mg/kg/injection, schedule: Q01DX009 (ip), vehicle: saline + alcohol) 91 % of control.
